Measured values reported in patent US5290776A, “Azole derivatives” (Imperial Chemical Industries, PLC, priority 1991, dated 1994).

Tests used:
[1] = target: T1, adenosine receptor known as A1 (Cavia porcellus, UniProt P47745); assay: Guinea-pig Atrial Bradycardic Test; format: cell-based; conditions: antagonism of bradycardic effect of 2-chloroadenosine, beating guinea-pig atrial preparation; read-out: pA2 (converted)
T1 construct: Atrial pairs are obtained from guinea-pigs; from tissue; host or cells: guinea-pig atrial pairs (Dunkin Hartley)
T1 sequence (P47745 1-326): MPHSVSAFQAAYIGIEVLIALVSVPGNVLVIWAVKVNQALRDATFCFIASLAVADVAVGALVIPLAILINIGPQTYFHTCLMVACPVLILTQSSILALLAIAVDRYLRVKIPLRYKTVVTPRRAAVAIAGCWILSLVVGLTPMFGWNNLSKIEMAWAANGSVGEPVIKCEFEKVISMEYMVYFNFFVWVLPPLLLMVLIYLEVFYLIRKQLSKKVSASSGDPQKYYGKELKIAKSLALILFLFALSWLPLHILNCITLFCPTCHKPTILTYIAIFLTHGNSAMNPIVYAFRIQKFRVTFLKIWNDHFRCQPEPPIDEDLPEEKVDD
Method: (c) Guinea-pig Atrial Bradycardic Test
The spontaneously beating atria are then placed under a resting tension of 1 g and allowed to equilibrate for 50 minutes with continuous overflow. Overflow is then stopped and adenosine deaminase (1 Unit/ml) added to prevent the accumulation of endogenously produced adenosine. […] After washout during 30 minutes, adenosine deaminase is readministered to the bath which is allowed to equilibrate for 15 minutes. A 10^-5 M solution of the test compound in DMSO is then added to the bath which is left to incubate for 30 minutes. Any effect on the beating rate due to the test compound is noted before the dose response curve to 2-chloroadenosine is repeated. Compounds which are adenosine antagonists attenuate the 2-chloroadenosine response.
Test compounds are assessed by comparing dose response curves to 2-chloroadenosine alone with those obtained in the presence of the compound. Competitive adenosine antagonists produce a parallel shift in the 2-chloroadenosine dose response curve. […] The pA2 is then obtained in an analogous manner to that referred to in (b) above.

A2 Adenosine receptor = target: T2, A2 Adenosine receptor (Rattus norvegicus, UniProt P30543); assay: A2 Adenosine receptor affinity test ([3H]-NECA displacement, PC12 membranes); format: binding; conditions: displacement of [3H]-NECA from rat PC12 cell membranes
T2 construct: membrane preparations derived from the rat phaeochromocytoma cell line PC 12; host or cells: PC 12 (rat phaeochromocytoma), membranes
T2 sequence (P30543 whole entry): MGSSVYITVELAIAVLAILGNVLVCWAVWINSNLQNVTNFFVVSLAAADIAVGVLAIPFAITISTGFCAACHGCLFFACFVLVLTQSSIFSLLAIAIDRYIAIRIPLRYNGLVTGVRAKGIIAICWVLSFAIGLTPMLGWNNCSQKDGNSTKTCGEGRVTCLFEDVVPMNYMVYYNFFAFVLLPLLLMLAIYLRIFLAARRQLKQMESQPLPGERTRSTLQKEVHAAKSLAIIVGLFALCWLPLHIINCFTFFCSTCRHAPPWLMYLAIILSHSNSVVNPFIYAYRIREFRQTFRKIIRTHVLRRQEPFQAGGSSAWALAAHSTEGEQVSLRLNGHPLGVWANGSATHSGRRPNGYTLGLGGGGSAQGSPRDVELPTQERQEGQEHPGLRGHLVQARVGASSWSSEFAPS
Method: The membrane preparation is obtained as follows: Frozen pellets of PC12 cells are washed twice with ice cold, buffered, physiological saline and the cells recovered by centrifugation (1500 G) at 3° C. The separated cells are then suspended in hypotonic solution (distilled water), allowed to stand on ice for 30 minutes and are then carefully homogenized using a standard high-speed homogeniser with periodic ice-cooling to obtain a fine suspension. […] The mixture is then incubated at 37° C. After 20 minutes, the reaction is terminated by dilution with ice-cold buffer and transfer onto ice. The material obtained containing the cell membranes is recovered by centrifugation and washed by resuspension in buffer and recentrifugation. The pellet produced is then resuspended in ice-cold buffer using a hand-driven homogenizer. The resultant membrane suspension is frozen and stored under liquid nitrogen until required.
After incubation, the samples are rapidly filtered over glass-fibre mats and the filter mats are washed to remove non-receptor-bound radioligand. Receptor-bound radioligand entrapped on the filter mats is then determined by liquid scintillation counting. […] The specific binding (defined as the difference between the total binding and the non-specific binding) in the presence of the particular test compound is determined and compared with the control value.

[2] = tested on: vasodilation response during twitch contraction of skeletal muscle; assay: Anaesthetised cat exercise hyperaemia test; format: in vivo; conditions: 10 mg.kg^-1
Method: (f) Anaesthetised cat exercise hyperaemia test
This test involves assessment of the effect of a test compound to antagonise the vasodilation response which occurs during twitch contraction of skeletal muscle. The vasodilation is mediated partly by the release of endogenous adenosine from the contracting skeletal muscle.
Cats (2.4-3.6 kg) are anaesthetised with sodium pentobarbitone (50 mg.kg^-1 ip). The following blood vessels are catheterized: left jugular vein (for infusion of anaesthetic, at approximately […] as a 6 mg.ml^-1 solution in isotonic saline), right external jugular vein (for administration of drugs and test compounds), right common carotid artery (for measurement of systemic arterial blood pressure and pulse rate) and right brachial artery (for withdrawal of blood).
Blood flow to the left hind limb is measured with an electromagnetic flow probe around the left external iliac artery. The whole of the left hind limb is made to contract at 3 Hz for 20 minutes duration by stimulating the sciatic and femoral nerves. Active tension produced by the extensor digitorum longus and peroneous longus muscles is measured isometrically with a force transducer. Exercise is repeated twice within the same animal, in either the absence or presence of the test compound. Test compounds are assessed for their ability to reduce the vasodilation during skeletal muscle contraction.

[3] = tested on: adenosine receptor known as A2; assay: Guinea-pig Aortic Constriction Test; format: cell-based; conditions: antagonism of adenosine attenuation of phenylephrine induced constriction, guinea-pig aortic ring
Source text: (b) Guinea-pig Aortic Constriction Test
This test has been described by Collis et al. (British J. Pharmacology, 1989, 97, 1274-1278) and involves the assessment of the ability of a test compound to antagonise the attenuatory effect of adenosine on phenylephrine induced constriction of a guinea-pig aortic ring preparation, an effect mediated via the adenosine receptor known as A2.
The aortic ring preparation is obtained as follows:
Sections (3-5 mm) of guinea pig thoracic aorta (from Dunkin Hartley strain, 250-400 g males) are mounted in organ baths containing oxygenated Krebs solution (95% O2 : 5% CO2) at 37° C. [The nucleoside transport inhibitor, dipyridamole (10 μM) is present in the Krebs solution]. The isometric tension development is recorded and the tissue placed under a resting tension of 1 g and allowed to equilibrate for 1 hour. […] Adenosine is next added cumulatively (10^-7 M to 10^-3 M) and the evoked relaxation is measured. […]
Test compounds are assessed by plotting the percentage relaxation observed against the logarithm of the adenosine concentration, competitive adenosine antagonism producing a parallel shift in the standard adenosine concentration/relaxation (dose response) curve. […] The pA2 value, which is an estimate of the concentration of antagonist to give a dose ratio of 2, may also be calculated using a standard computation technique.

SMILES | Kb [1] | IC50 (A2 Adenosine receptor) | inhibition of vasodilation during skeletal muscle contraction [2] | pA2 [3]
Nc1nc(-c2ccccc2)nc2nc(-c3ccco3)nn12 [Example 1, 7-amino-2-(2-furyl)-5-phenyl-[1,2,4]-triazolo[1,5-a][1,3,5]triazine] | 39.8 nM | ~25.1 nM |  | 
Cn1c(=O)c2[nH]cnc2n(C)c1=O [1,3-dimethylxanthine] |  |  | significant inhibition | about 5
